According to US20080153792A1, “Drug Identification and Treatment Method” (priority 2006, published 2008):

What was measured:
[1] = system: osteoblasts and osteocytes in murine vertebral bone; assay: osteoblast and osteocyte apoptosis in ovariectomized mice (TUNEL); format: in vivo, mouse; settings: ovariectomized Swiss Webster mice
Description: The degree of apoptosis of osteoblasts and osteocytes in murine vertebral bone as a function of estrogen deficiency was examined. Swiss Webster mice (four months old) were ovariectomized. Twenty-eight days later, the animals were sacrificed, vertebrae were isolated, fixed and embedded, and then undecalcified in methacrylate.

[2] = system: CD4^+CD25^+ T regulatory cells; assay: CD4+CD25+ T regulatory cells after adoptive transfer of CD4+CD25- T cells; format: in vivo, mouse; settings: 1 mg/animal/day s.c. for 14 days
Method: Inhibition of the generation of CD4^+CD25^+ T regulatory cells or their activity in vivo. Purified CD4^+CD25^− T cells (5×10^6 cells) from congenic B6.5JL mice (CD45.1) per group were adoptively transferred into each of five B6 mice (CD45.2). The purified CD4^+CD25^− T cells were obtained by fluorescence activated cell sorting (FACS) of the donor cells at least twice. Vehicle (0.1% carboxymethylcellulose, 0.9% saline, 2% tween 80, 0.05% phenol) or 16α-bromoepiandrosterone in vehicle (1 mg/animal/day in 100 μL vehicle) was injected subcutaneously before transfer of the cells from the CD45.1 donor animals and the injections were continued daily for 14 days. Thymus, lymph nodes and spleens were collected from the animals at day 15. Samples of thymus, lymph node and spleen were obtained from individuals, and the cells were labeled with fluorescent antibody that bound to CD4, CD25, CD103 or Foxp3. The cells were then analyzed by flow cytometry to enumerate the numbers of the various cell types. The remainder of cells from lymph nodes and spleen of each treatment group were pooled, pre-enriched for CD4^+CD25^+ cells and then analyzed for CD4^+CD25^+ that arose from the host (endogenous CD45.2 cells) and from donor cells (CD45.1 cells that converted from the CD4^+CD25^− donor phenotype to the CD4^+CD25^+ phenotype after residing in vivo for 15 days). The cells were analyzed by cell sorter. To test for regulatory function, varying numbers of purified converted CD45.1 or endogenous CD45.2 CD4^+CD25^+ cells were co-cultured with 2000 CD4^+CD25^− responder cells, 1×10^5 irradiated spleen cells as antigen presenting cells, and […] of anti-CD3 antibody. Fresh CD4^+CD25^+ cells were used as controls. Proliferation was determined by measurement of ^3H-thymidine uptake 4 days after initiation of culture.

[3] = system: mice, LPS induced lung injury; assay: lung injury by sublethal LPS to trachea and lungs, BAL cell count; format: in vivo, mouse; settings: oral gavage 24 h before and 1 h after 100 μg LPS; 48 hours
Method: In another assay, the capacity of 16α-bromoepiandrosterone and 3β,16α-dihydroxy-17-oxoandrostane to protect against lung injury induced by exposure to a sublethal amount of LPS in mice was shown. In this assay, the compounds, sterile saline (negative control) or vehicle (vehicle control) were administered to groups of 5 mice by oral gavage at 24 hours before and 1 hour after administration of 100 μg of LPS to the trachea and lungs of animals under light anesthesia. At 48 hours the animals were sacrificed and samples were obtained from the lungs of the animals by bronchiolar alveolar lavage (BAL). The numbers of cells in the BAL fluid were counted, with high numbers of cells showing lung inflammation and damage. In this assay, cells that mediate inflammation and lung damage infiltrate into the lungs in response to the presence of the LPS. In the negative control and vehicle control groups, the BAL fluid contained about 6×10^7 cells/mL. […] Other compounds, e.g., 17α-ethynylandrost-5-ene-3β,7β,17β-triol or 17β-aminoandrost-5-ene-3β-ol, can be characterized in a similar manner.

[4] = system: Pseudomonas aeruginosa; assay: clearance of chronic lung infection in CFTR mice; format: in vivo; settings: 40 mg/kg; day 10; p=<0.04 vs vehicle
Method: Clearance of bacteria from lung tissue. The capacity of 16α-bromoepiandrosterone to clear a Pseudomonas aeruginosa infection from lung tissue was shown using a previously published protocol, A. van Heeckeren et al., J. Clin. Invest., 100(11):2810-2815 […]; A. van Heeckeren et al., Am. J. Respir. Crit. Care Med., 161:271-279 2000. The protocol was conducted in CFTR mice, which are used as an animal model for human cystic fibrosis, S. D. Freedman et al., Proc. Natl. Acad. Sci. USA, 96(24):13995-14000 1999; W. Zeng et al., Am. J. Physiol. Cell. Physiol. […] Establishment of chronic P. aeruginosa infection using agarose beads containing bacteria (50 μL containing about 6.1×10^4 CFU/animal) was published earlier, J. R. Starke et al., Pediatr. Res., 22:698-702 1987. Two groups of mice (n=9 for each group) were treated with 40 mg/kg of 16α-bromoepiandrosterone or vehicle (control) and the bacterial burden in the lungs of the animals was determined at 10 days after introduction of the agarose beads into the lung.

[5] = system: NF-κB; assay: NF-κB-bla THP-1 β-lactamase reporter assay; format: cell-based, human
[6] = system: γ-interferon production by human whole blood; assay: γ-interferon production in human whole blood exposed to LPS; format: cell-based; settings: LPS 24 hours; 16α-bromoepiandrosterone at 100 ng/mL
Method: Anti-inflammation activity in human cells in vitro. […] The amount of γ-interferon was measured in the growth medium when the cells had been incubated in the presence of LPS for 24 hours.

[7] = system: mice given a lethal amount of LPS; assay: lethal shock protocol, lethal amount of bacterial LPS; format: in vivo, mouse; settings: for survival 72 hours after LPS: first protocol
Method: Treatment of lethal inflammation/shock. Two compounds, 16α-bromoepiandrosterone (3β-hydroxy-16α-bromoandrostane-17-one) and 3β,16α-dihydroxy-17-oxoandrostane, were used in a lethal shock protocol. In one protocol, 3 mg of 16α-bromoepiandrosterone was administered to one group of animals by oral gavage, while another group received 3 mg of 16α-bromoepiandrosterone by subcutaneous injection. A group of control animals received a placebo control. In this protocol, the 16α-bromoepiandrosterone was administered to mice at 24 hours before and at 1 hour after administration of a lethal amount of bacterial lipopolysaccharide (LPS). By the end of the observation period, 72 hours after LPS administration, none of the vehicle treated placebo control animals had survived, while 65% of animals that received 16α-bromoepiandrosterone by oral administration survived. 50% of the animals that received 16α-bromoepiandrosterone by subcutaneous injection survived. Animals that survived for 72 hours all recovered from the LPS exposure.
In a second assay, 16α-bromoepiandrosterone or 3β,16α-dihydroxy-17-oxoandrostane was administered to mice by oral gavage at 24 hours before and 1 hour after administration of a lethal amount of LPS. A vehicle treated group of animals was used as the placebo control.

[8] = system: MG-63 cells; assay: reversal of glucocorticoid effects in MG-63 osteosarcoma cells; format: cell-based, human; settings: 10 nM compound
[9] = metabolic stability in liver microsomes: mouse; settings: 10 min
Method: (§1) The protocol was performed as follows. […] (2) Set up samples as follows. […] (4) The internal standard/acetonitrile solution.

[10] = other protocols: degree of sulfation and glucuronidation
[11] = metabolic stability in liver microsomes: human; settings: 10 min
Method: as §1

[12] = system: NF-κB in spleen cells of ICR mice; assay: activated NF-κB in spleen cell nuclei after LPS, Example 8; format: in vivo, mouse; settings: about 40 mg/kg i.p. 24 h before and 1 h after LPS; spleens 1.5 hours after LPS
Method: The capacity of selected compounds to treat LPS induced shock/inflammation in mice was examined by a protocol similar to the protocol described above. Five groups of three ICR mice weighing about 30 g were each treated by intraperitoneal injection with 120 μL vehicle (30% sulfobutylether-cyclodextrin in water), androst-5-ene-3α,7β,16α,17β-tetrol in vehicle, androst-5-ene-3β,4β,16α,17β-tetrol in vehicle or 4β-acetoxyandrost-5-ene-3β,16α,17β-triol in vehicle. All drug and vehicle formulations were solutions, not suspensions. The sulfobutylether-cyclodextrin was obtained commercially (Captisol™, www.cyclexinc.com). There were two vehicle control groups one group received vehicle alone and the other received vehicle plus LPS. […] Drug was administered at about 40 mg/kg (1.2 mg drug/animal for each administration of the drugs). Spleens were harvested from the animals at 1.5 hours after injection of LPS and spleen cells were lysed and assayed for activated NF-κB by isolating nuclei from spleen cells and measuring NF-κB from the lysed nuclei. […] The level of activated NF-κB in spleen cells from the animals that were treated with vehicle and no LPS, was essentially the same as the activated NF-κB in spleen cells from drug treated animals.

[13] = system: female SJL mice, EAE; assay: experimental autoimmune encephalomyelitis (EAE), PLP-induced, Example 23; format: in vivo, mouse; settings: 0.1 mg q.d. po from clinical onset
[14] = system: CF-1 mice, hemorrhagic shock; assay: hemorrhagic shock and ischemia with abdominal surgery; format: in vivo, mouse; settings: 2 mg in resuscitation fluid; vehicle control 1/15
Method: The effect of compounds on hemorrhagic shock and ischemia was examined in another protocol. CF-1 mice at an age of 6-8 months were anesthetized using methoxyfluorothane and prepared for abdominal surgery. Each mouse was tested for the level of respiration, eye blink response and response to a skin pinch to ensure a level of anesthesia appropriate for surgery. The duration of abdominal surgery was approximately two hours, during which time 35-40% of the animal's blood volume is removed over a […]. The removal of blood in a controlled manner simulates the effect of hemorrhagic shock. A slow intravenous infusion of the removed blood and a 2× volume of resuscitation fluid (lactated Ringers solution) into a central vein was made. The resuscitation fluid was supplemented with either 2 mg dehydroepiandrosterone-3β-sulfate or the excipient as a placebo. The peritoneum and overlying skin were sutured separately. Animals were maintained at 38°-39° C. until recovery is complete. Under these conditions, most of the placebo-treated animals died within 24-48 hours. […] Mesenteric lymph nodes (MLN) were removed and cultured on blood agar plates and the number of CFUs counted following culturing. The liver was removed and the amount malondialdehyde was measured.

SMILES: C[C@]12CC[C@H]3[C@@H](CCC4=C[C@H](O)CC[C@@H]43)[C@@H]1CC[C@@H]2O [4-estrene-3α,17β-diol]
- osteoblast and osteocyte apoptosis [1]: reduce apoptosis

SMILES: C[C@]12CC[C@H](O)C[C@@H]1CC[C@@H]1[C@@H]2CC[C@]2(C)C(=O)[C@H](Br)C[C@@H]12 [16α-bromoepiandrosterone]
- average donor CD45.1 CD4^+CD25^+ cell number in spleens ([2]; day 15, vehicle 1.97×10^5): 0.62×10^5 cells
- average endogenous CD45.2 CD4^+CD25^+ cells in the thymus ([2]; day 15, vehicle 3.10×10^5): 1.59×10^5
- average endogenous CD45.2 CD4^+CD25^+ cell number in spleens ([2]; day 15, vehicle 9.54×10^6): 5.49×10^6 cells
- proportion of endogenous CD45.2 CD4^+CD25^+CD103^+ Treg cells in spleens ([2]; vehicle 13.85%): 13.40%
- average of donor CD45.1 CD4^+CD25^+CD103^+ cells of total donor CD4^+CD25^+ cells in spleens ([2]; vehicle 29.06%): 9.63%
- cell counts in the BAL fluid [3]: about 4.4×10^7 cells/mL
- bacterial burden in the lungs [4]: reduced
- maximum NF-κB inhibition ([5]; this protocol): 100%
- production of γ-interferon [6]: Reduced production
- survival 72 hours after LPS ([7]; 3 mg by oral gavage 24 h before and 1 h after LPS): 65%
- survival 72 hours after LPS ([7]; 3 mg by subcutaneous injection 24 h before and 1 h after LPS): 50%
- survival at 72 hours ([7]; second assay, oral gavage 24 h before and 1 h after LPS): 80%

SMILES: C[C@]12CC[C@H]3[C@@H]([C@@H](O)C=C4C[C@H](O)CC[C@@]43C)[C@@H]1C[C@@H](O)[C@@H]2O [androst-5-ene-3α,7β,16α,17β-tetrol]
- osteoprotegerin levels in the presence of 30 nM dexamethasone [8]: normal osteoprotegerin levels
- parent remaining mouse microsomes [9]: 100% (10 min)
- degree of sulfation and degree of glucuronidation compared to diols [10]: low
- parent remaining human microsomes [11]: 100% (10 min)
- decrease of NF-κB activation compared to LPS+vehicle control group [12]: about 50%
- course of EAE compared to vehicle-treated mice [13]: very similar to that observed in the vehicle-treated mice

SMILES: C[C@]12CC[C@H]3[C@@H](CCC4C[C@H](O)[C@@H](O)C[C@@]43C)[C@@H]1C[C@@H](O)[C@@H]2O (stereo partly drawn) [androstane-2β,3α,16α,17β-tetrol]
- melting point: 260 to 263 °C
- IC50 ([5]; Homo sapiens, THP-1, read-out: IC50, this protocol): > 10 µM

SMILES: C[C@]12CC[C@H](OS(=O)(=O)O)CC1=CC[C@@H]1[C@@H]2CC[C@]2(C)C(=O)CC[C@@H]12 [dehydroepiandrosterone-3β-sulfate]
- survival [14]: 15/15
